The source of these data is patent publication EP0837859B1, “TETRAHYDROFURAN ANTIFUNGALS” (SCHERING CORPORATION, priority 1995, dated 1997).

The assay concerns 11 strains of C. albicans and tropicalis. As to the kind of experiment: in vitro antifungal activity in EMEM (geometric mean MIC). The note with it: Candida albicans, read-out: geometric mean MICs. The format is cell-based.

Each structure is given as a SMILES string.

For the compound `CC[C@@H]([C@H](C)O)n1ncn(-c2ccc(N3CCN(c4ccc(OC[C@H]5CC[C@](Cn6cncn6)(c6ccc(F)cc6F)O5)cc4)CC3)cc2)c1=O`, the MIC was at least 0.01 µg/mL.
